Where two headings read alike, the source gives them in different places. Marks after values point to notes of the source that are not given here.

A word on the fraction unbound: it is the share of the substance not bound to proteins or other matrix. One may read the pKa as the pH at which an ionisable group is half protonated. As usually defined, the Tmax is the time from dosing to the highest level. As usually defined, the microsomal CLint is the rate of metabolic loss divided by the concentration. Usually half-life stands for the time needed for the level to fall by half in the phase considered. The low end stands for rapid decline, the high end for slow decline. Broadly, the EC50 is the concentration at which the effect is half-maximal. By logP is commonly meant a log measure of how a compound divides between an organic and an aqueous phase.

A short description of data set [1]: Plasma protein binding assay. It is filed as in vitro ADME. As to conditions: 2 h incubation; for fraction unbound at 2 h: plasma. How it is done: (§1) First, for the construction of the adult molnupiravir-NHC PBPK model, the physicochemical properties were incorporated. Moreover, ADME in vitro assays were performed to allow a better estimation of in vivo PK behavior. In particular, the plasma stability and the metabolic stability assays were used to derive information on the half-life of molnupiravir and the subsequent generation of NHC. […] This information was taken into account during parameter optimization. […] The determination of the log P value yielded information for calculation of the partition coefficients. […] This value was used as a basis for the subsequent parameter optimization. As NHC is further converted to NHC-TP, which is cleared via the endogenous nucleoside pool, renal clearance as well as hepatic clearance, indicated by our in vitro data, is not involved in clearance.
(§2) The plasma protein binding assay, the plasma stability assay, and the metabolic stability assay were performed as described previously.[30] For all of the assays, NHC and molnupiravir were used. Molnupiravir and NHC were purchased from Merck/Sigma.

Data set [2] deals with rats. Also noted: method as in earlier work. As to conditions: over three months; cited from earlier work.
The nature of data set [3]: Pediatric PBPK model for neonates, infants and children in early childhood (PK-Sim). Details: species or system human.
For data set [4] the following is noted: cited from earlier work.
For data set [5] the following is noted: cited from earlier work. The source holds these as a separate data set.
A short description of data set [6]: Microsomal metabolic stability assay. It is filed as in vitro ADME. As to conditions: microsomes; for microsomal CLint: microsomal metabolic stability (Clint; in vitro). Here is the method: as §1, §2
Data set [7] deals with dogs. The conditions noted are these: 14 days; cited from earlier work.
For data set [8], the system named is dogs. Kind of data set: Preclinical toxicity study in dogs. As to conditions: allometric scaling of 50 mg/kg/day in dogs, scaling factors of ref 38.
The test system of data set [9] is rats. Kind of data set: Preclinical bone and cartilage toxicity in rats. As to conditions: allometric scaling of 500 mg/kg/day in rats, scaling factors of ref 38.
For data set [10] the following is noted: cited from earlier work. This is another data set of the same source.
Data set [11] in a line: Plasma stability assay. It is filed as in vitro ADME. As to conditions: for half-life: plasma. Here is the method: as §1, §2
A short description of data set [12]: PAMPA permeability assay. It is filed as in vitro ADME. Here is the method: For the PAMPA assay, a PAMP-096 kit from BioAssay Systems was used. Theophyllin, chloramphenicol, and diclofenac were used as low, high, and medium permeability controls, respectively. The assay was conducted as described in the manufacturer’s protocol. For all compounds, 10 mg/mL DMSO stocks were used. Compound concentrations were determined using HPLC-MS/MS. For the HPLC-MS measurements, samples were analyzed using an Agilent 1290 Infinity II HPLC system coupled to an AB Sciex QTrap 6500plus as described below. Permeability was determined as follows in eqs 2 and 3.
Effective permeability (Peff) was calculated using the following formula [drawing 2] 2 [drawing 3] 3 where the PAt is average peak area of the test compound or permeability standard and PAE is the peak area of the equilibrium standard. The value of C was calculated by the following formula, where donor volume (VD) is 0.2 cm^3, acceptor volume (VA) is 0.3 cm^3, membrane area is 0.24 cm^2, and incubation time is 72,360 s.
(§3) Samples were analyzed using an Agilent 1290 Infinity II HPLC system coupled to an AB Sciex QTrap 6500plus mass spectrometer. LC conditions were as follows: column: Agilent Zorbax Eclipse Plus C18, 50 × 2.1 mm, 1.8 μm; temperature: 30 °C; injection volume: 1 μL per sample; flow rate: 700 μL/min. Samples were collected under the following conditions. Solvents: A: 100% water +0.1% HCOOH; solvent B: 100% ACN +0.1% HCOOH. The gradient was as follows: 99% A at 0 min, 99% A until 1 min, 99–0% A from 1 to 3 min, 99% A until 3.2 min. Mass transitions are depicted in Table S1. Peaks of samples were quantified by using relative quantification. Data analysis was performed by using Multiquant 3.0 software (AB Sciex).
Background: In PAMPA a lipid-coated filter parts donor from acceptor wells.

Data set [13] relates to SARS-CoV-2 omicron BA.1 lineage. Also noted: method as in Wen et al., 2023 (36). The conditions noted are these: ref Wen et al., 2023 (36), read-out: Antiviral activity, EC50; cited from earlier work.
Data set [14] deals with SARS-CoV-2 alpha. Also noted: method as in Wen et al., 2023 (36). As to conditions: ref Wen et al., 2023 (36), read-out: Antiviral activity, EC50; cited from earlier work.
For data set [15], the system named is SARS-CoV-2 omicron BA.2 lineage. Also noted: method as in Wen et al., 2023 (36). As to conditions: ref Wen et al., 2023 (36), read-out: Antiviral activity, EC50; cited from earlier work.
For data set [16], the system named is SARS-CoV-2 beta. Details: method as in Wen et al., 2023 (36). The conditions noted are these: ref Wen et al., 2023 (36), read-out: Antiviral activity, EC50; cited from earlier work.
The subject of data set [17] is SARS-CoV-2 delta. Details: method as in Wen et al., 2023 (36). The conditions noted are these: ref Wen et al., 2023 (36), read-out: Antiviral activity, EC50; cited from earlier work.
The nature of data set [18]: Experimental determination of log P (octan-1-ol/water). It is filed as physicochemical. The conditions noted are these: data from in vitro studies. How it is done:
The log P experiment was performed for molnupiravir and its metabolite NHC. Octan-1-ol and water were saturated 24 h prior to the start of the experiment. Each compound was added to the octan-1-ol phase at a final concentration of 100 ng/mL. Two setups were used: octan-1-ol/water (1:1) and octan-1-ol/water (1:10). After addition of the compound, each phase was shaken at 2000 rpm for 1 h, and then, phases were separated by centrifugation at 13,000 rpm for 5 min at 4 °C. From each sample, 10 μL of water layer and octanol layer was diluted to 100 μL with DMSO for high-performance liquid chromatography tandem mass spectrometry (HPLC-MS/MS) analysis. The log P was calculated by Formula 1. [drawing 1] 1
as §3, with “Data analysis was performed by using Multiquant 3.0 software (AB Sciex).” left out

Data set [19] relates to SARS-CoV-2 wildtype. Details: method as in Wen et al., 2023 (36). As to conditions: ref Wen et al., 2023 (36), read-out: Antiviral activity, EC50; cited from earlier work.

On to `CC(C)C(=O)OC[C@H]1O[C@@H](n2ccc(NO)nc2=O)[C@H](O)[C@@H]1O` [Molnupiravir], for which, in data set [1], the “plasma protein binding (%)” value is 38.08 ^b % and the fraction unbound at 2 h is ~0.62. Besides, the “dose at which bone and cartilage toxicity was observed” value in data set [2] is given as “exceeding 500 mg/kg/day”. The “fold higher doses needed in pediatric subpopulations for similar efficacy to adults” value in data set [3] is recorded as 2–3 fold. Further, the pKa in data set [4] (first of three values) is recorded as 2.2. Moreover, in data set [4] (second of three printed values), the pKa is 10.2. Also, in data set [4] (third of three printed values), the pKa was 12.0. In addition, in [5] (concomitant food consumption), the “decrease in Cmax with food (ratio)” value is listed as 1.6 and the “effect of food on total exposure (AUC0–∞)” value is “not impacted”. Besides, in data set [5] (with concomitant food consumption), the Tmax is on record as 3.0 h. Further, in [5] (without food), the time to peak (Tmax) is 1.0 h. Moreover, in [6], the “microsomal metabolic stability (Clint; in vitro)” value was 40.6 ^b μL/min/mg protein and the microsomal CLint is ~40 µL/min/mg. Besides, the “dose at which no toxicity was observed” value in data set [7] was 50 mg/kg/day. The “human equivalent dose of the nonobserved toxicity dose in dogs” value in [8] turned out to be 27 mg/kg/day. In addition, in data set [9], the “human equivalent dose of the toxicity-associated rat dose” value is recorded as “around 80 mg/kg/day”. Moreover, the solubility in data set [10] was 41[21] mg/mL. For the same molecule, in data set [11], the “plasma stability (in words)” value is given as “degraded rapidly in plasma” and the half-life was < 0.25 h. Besides, the “permeability (in words)” value in data set [12] is reported as “moderate permeability”. In data set [12] (72360 s), the “permeability (PAMPA)” value is on record as 3.1 10^–6 cm/s. For the same molecule, in data set [12] (data from in vitro studies, read-out: specific intestinal permeability (converted)), the Papp at 72360 s is 3.1 ×10⁻⁶ cm/s.

Regarding `O=c1nc(NO)ccn1[C@@H]1O[C@H](CO)[C@@H](O)[C@H]1O` [NHC, β-D-N4-hydroxycytidine], the concentration for a half-maximal effect (EC50) in data set [13] is 280 nM; in [14], 530 nM; in data set [15], 670 nM; in data set [16] it was 480 nM; in [17], 890 nM; in data set [19], 300 nM. For the same molecule, the “plasma protein binding (%)” value in data set [1] is on record as 38.84 ^b %. The unbound share (fraction unbound) at 2 h in data set [1] was ~0.64. Also, the pKa in data set [4] (model input, source not given) is reported as 12.30. For the same molecule, the intrinsic clearance (microsomal CLint) in data set [6] is ~11.6 µL/min/mg. In [18], this molecule showed a logP of 0.1. Also, the solubility in [10] was 21[21] mg/mL. Further, the “plasma stability (in words)” value in data set [11] was “stable in plasma”. The half-life in [11] is > 4 h.

(Values after PMC11651168, “Effective, but Safe? Physiologically Based Pharmacokinetic (PBPK)-Modeling-Based Dosing Study of Molnupiravir for Risk Assessment in Pediatric Subpopulations” (ACS Pharmacology & Translational Science, 2024).)
